{"source": "paper PMC6218639", "about": "“The calcium sensitizer drug MCI-154 binds the structural C-terminal domain of cardiac troponin C” (Biochemistry and Biophysics Reports, 2018)", "target": "T1, cardiac troponin C (cTnC) (Homo sapiens, UniProt P63316, C35S/C84S)", "T1 construct": "gene TNNC1; cTnC residues 1–161", "experiment": "2D 1H, […]-HSQC NMR titration (KD […]), confirmed by ITC", "type": "binding", "data": [{"smiles": "O=C1CCC(c2ccc(Nc3ccncc3)cc2)=NN1", "note": "[MCI-154, 6-(4-(pyridin-4-ylamino)phenyl)-4,5-dihydropyridazin-3(2H)-one]", "values": [{"measurement": "Kd", "result": "500 ± 100", "unit": "µM"}]}]}
